Experimental data published in patent US7928206B2 (priority 2002, dated 2011).
Read-outs that look alike come from different tables or passages of the source.

How the values were obtained:
[1] = target: T1, rAT-ΔN45TK1b, Arabidopsis thaliana thymidine kinase AT-TK1b (SEQ ID NO: 13) with N-terminal deletion of 45 amino acids (Arabidopsis thaliana, UniProt F4KBF5); conditions: substrate Thd; data from Le Breton C, B. Sc. Report 2002; cited from earlier work
T1 sequence (F4KBF5 51-282): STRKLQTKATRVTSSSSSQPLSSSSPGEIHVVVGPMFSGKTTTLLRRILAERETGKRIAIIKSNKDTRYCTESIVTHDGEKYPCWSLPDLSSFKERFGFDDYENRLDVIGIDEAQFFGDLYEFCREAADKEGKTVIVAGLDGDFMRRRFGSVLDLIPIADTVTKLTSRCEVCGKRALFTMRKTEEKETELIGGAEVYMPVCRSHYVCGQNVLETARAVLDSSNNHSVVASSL

[2] = target: T2, rAT-TK1a, Arabidopsis thaliana thymidine kinase AT-TK1a, recombinant wild type, SEQ ID NO: 9 (Arabidopsis thaliana, UniProt Q9S750); conditions: substrate Thd, data from Le Breton C, B. Sc. Report 2002, cited from earlier work
[3] = dTMP kinase activity (monophosphate to diphosphate); type: biochemical; conditions: 30 mU enzyme, 100 μM 3H-labelled substrate, 0 to 120 minutes
Description: (§1) 5 μl, of this mixture were plated on polyethylenimine-cellulose plates, which were developed ascending in 0.5 M […]. The spots with the nucleosides and nucleotides were identified under UV light and cut out.
The radioactivity in the spots was extracted with 0.2 M KCl in 0.1 M HCl, and determined by liquid scintillation counting. 1 pmol radioactive nucleoside/tide counts 850 cpm.
The cpm obtained at the indicated times (15, 30, 60, 90 and 120 minutes, respectively) are determined in the TDP spots derived from 2.5 μl of the reaction mixture.

[4] = AZT monophosphate kinase activity; type: biochemical; conditions: 30 mU enzyme, 100 μM 3H-labelled substrate
Description: as §1
The radioactivity in the spots was extracted with 0.2 M KCl in 0.1 M HCl, and determined by liquid scintillation counting. 1 pmol radioactive nucleoside/tide counts 850 cpm. […]

[5] = tested on: Glioblastoma U-87 MG; assay: Cell proliferation assay (XTT), sensitivity to AZT of transduced cells; type: cell-based; conditions: Homo sapiens, parental U-87 MG, construct None
Description: 293T packaging cells (ATTC CRL-11268) were cultured at 37° C. in OPTIMEM 1 medium (Life Technologies, Inc.). The constructed pLCXSN plasmid vector was transfected into the packaging cells using LipofectAMINE PLUS (Life Technology Inc.) according to the protocol provided by the supplier. The medium from the transfected cells was collected 48 hours after transfection, filtered through a […] filter, pelleted by ultracentrifugation (50,000×g, 90 minutes at 4° C.) and dissolved in TEN buffer (100 mM NaCl, 10 mM Tris pH 7.5, 1 mM EDTA).
The virus-containing buffer was subsequently used to transduce the cancer cell lines with MOI of 5.
(§2) Each experiment was performed in four replicates.

[6] = target: rTOM-TK1, tomato (Lycopersicum esculentum) thymidine kinase, recombinant wild type, SEQ ID NO: 4 (Solanum lycopersicum, UniProt Q71F77); type: biochemical; conditions: substrate AZT
Description: (§3) Transformed KY895 were grown to an OD600 nm of 0.5-06 in LB/Ampicillin (100 μg/ml) medium at 37° C. and protein expression was induced by addition of IPTG to make 100 μM. The cells were further grown for 4 h at 25° C. and subsequently harvested by centrifugation.

[7] = target: T1, rAT-ΔN45TK1b, Arabidopsis thaliana thymidine kinase AT-TK1b (SEQ ID NO: 13) with N-terminal deletion of 45 amino acids; assay: Kinetic constants of purified recombinant thymidine kinase (rAT-ΔN45TK1b); type: biochemical, thale cress (Arabidopsis thaliana); conditions: substrate AZT
Description: An N-terminal deletion of 45 amino acids was achieved by using the primers
The resulting plasmid was named pGEX-2T-AT-ΔN45TK1b (P663).
as §3

[8] = target: T2, rAT-TK1a, Arabidopsis thaliana thymidine kinase AT-TK1a, recombinant wild type, SEQ ID NO: 9; assay: Kinetic constants of purified recombinant thymidine kinase (rAT-TK1a); type: biochemical, thale cress (Arabidopsis thaliana); conditions: substrate AZT
Description: as §3

[9] = target: rHSV1-TK, human Herpes simplex virus type 1 thymidine kinase (Human alphaherpesvirus 1 strain 17, UniProt P0DTH5); assay: Kinetic constants of purified recombinant thymidine kinase (rHSV1-TK); type: biochemical; conditions: substrate AZT
Chain of rHSV1-TK, human Herpes simplex virus type 1 thymidine kinase (P0DTH5 whole entry): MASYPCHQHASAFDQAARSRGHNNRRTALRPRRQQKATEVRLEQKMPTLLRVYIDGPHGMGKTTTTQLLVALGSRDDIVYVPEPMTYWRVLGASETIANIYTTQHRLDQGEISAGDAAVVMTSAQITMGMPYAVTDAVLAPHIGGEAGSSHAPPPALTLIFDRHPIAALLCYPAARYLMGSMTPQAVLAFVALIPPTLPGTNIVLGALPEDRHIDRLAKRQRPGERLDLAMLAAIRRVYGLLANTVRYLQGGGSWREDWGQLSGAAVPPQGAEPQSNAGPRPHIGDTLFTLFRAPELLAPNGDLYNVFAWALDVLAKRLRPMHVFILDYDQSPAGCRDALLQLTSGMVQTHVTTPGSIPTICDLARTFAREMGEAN
Description: as §3

[10] = Cell proliferation (XTT), sensitivity to AZT; type: cell-based; conditions: Homo sapiens, U-87 MG, 120 h, 5 days of drug exposure
Description: (§4) Arabidopsis constructs based on AT-TK1a were cut with BamHI/XhoI, and tomato PCR fragments were cut with BglII/XhoI, and cloned into the BglII-XhoI site of plasmid vector pLCXSN, which is a retroviral transfer vector derived from pLXSN (Clontech, cat# K1060-B) by insertion of the CMV promoter upstream of the polylinker.
as §2

[11] = tested on: glioblastoma U-87 MG cells transduced with PZG53: AtTK1 (AT-TK1a, Arabidopsis thaliana, SEQ ID NO: 9); assay: Cell proliferation (XTT), sensitivity to AZT; type: cell-based; conditions: Homo sapiens, 120 h, 5 days of drug exposure
Description: as §4, §2

[12] = tested on: glioblastoma U-87 MG cells transduced with PZG69: TomTK1 (tomato TK1, SEQ ID NO: 4); assay: cells; conditions: Homo sapiens, 120 h, 5 days of drug exposure
Description: as §4, §2

[13] = tested on: glioblastoma U-87 MG cells transduced with HSV1-TK (human Herpes simplex virus type 1 thymidine kinase); assay: Cell proliferation (XTT), sensitivity to AZT; type: cell-based; conditions: 120 h, 5 days of drug exposure
Description: as §2

[14] = tested on: glioblastoma U-87 MG cells transduced with pLCXSN (retroviral vector alone); assay: cells; conditions: Homo sapiens, 120 h, 5 days of drug exposure
[15] = Kinetic constants of purified recombinant TK, substrate AZT; conditions: from Tables 6 and 7
[16] = transient polyclonal cell lines

Cc1cn([C@H]2C[C@H](O)[C@@H](CO)O2)c(=O)[nH]c1=O [Thd, thymidine]
Vmax for Thd [1]: 165 mU/mg
kcat for Thd [1]: 0.071 s⁻¹
Km ([2]; read-out: Km for Thd): 85 µM
Vmax for Thd [2]: 452 mU/mg
kcat for Thd [2]: 0.2 s⁻¹

HSV1-TK: human Herpes simplex virus type 1 thymidine kinase, control; in Table 4 expressed from the pLCXSN vector, in Example 6 purified enzyme
phosphorylation of TMP to TDP [3]: phosphorylates both substrates
degree of phosphorylation of AZT-monophosphate, lower than the thymidine substrate [4]: 10 fold
phosphorylation of AZT-monophosphate ([4]; 0 to 120 minutes): phosphorylates both substrates

Cc1cn([C@H]2C[C@H](N=[N+]=[N-])[C@@H](CO)O2)c(=O)[nH]c1=O [AZT, 3′-azido-3′-deoxythymidine]
IC50 ([5]; listed under stable polyclonal cell lines): 2440 µM
IC50 ([5]; listed under transient polyclonal cell lines): 4470 µM
Km [6]: 22.4 µM
Vmax for AZT [6]: 1579 mU/mg
kcat for AZT [6]: 0.681 s⁻¹
Vmax for AZT [7]: 242 mU/mg
kcat for AZT [7]: 0.104 s⁻¹
Km [8]: 3.55 µM
Vmax for AZT [8]: 244 mU/mg
kcat for AZT [8]: 0.106 s⁻¹
Km ([9]; read-out: Km for AZT): 1.7 µM
Vmax for AZT [9]: 4.1 mU/mg
kcat for AZT [9]: 0.028 s⁻¹
IC50 ([10]; stable polyclonal cell lines, cells transduced with PZG56 construct): 132 µM
IC50 ([10]; stable polyclonal cell lines, cells transduced with PZG59 construct): 25.1 µM
IC50 ([10]; transient polyclonal cell lines, cells transduced with PZG56 construct): 303 µM
IC50 ([10]; transient polyclonal cell lines, cells transduced with PZG59 construct): 26 µM
IC50 ([11]; stable polyclonal cell lines): 71.9 µM
IC50 [11, 16]: 97 µM
IC50 ([12]; stable polyclonal cell lines): 17 µM
IC50 [12, 16]: 47 µM
IC50 ([13]; stable polyclonal cell lines): 2580 µM
IC50 [13, 16]: > 5000 µM
IC50 ([14]; stable polyclonal cell lines): 4070 µM
IC50 [14, 16]: > 5000 µM

B1: rTOM-TK1: purified recombinant tomato (Lycopersicum esculentum) thymidine kinase, SEQ ID NO: 4 (protein, listed as Lycopersicon esculentum)
chain: MAFSSSARNPVDLRNGSKNSFCPVGEIHVIVGPMFAGKTTALLRRVNLESNDGRNVVLIKSSKDARYAVDAVVTHDGTRFPCWSLPDLSSFKQRFGKDAYEKVDVIGIDEAQFFGDLYEFCCNAADFDGKIIVVAGLDGDYLRKSFGSVLDIIPLADTVTKLTARCELCNRRAFFTFRKTNETETELIGGADIYMPVCRQHYVNGQSVNESAKMVLESHKVSNELILESPLVDP
ratio [kcat/Km (Thd)]/[kcat/Km (AZT)] [15]: 1.07

B2: rAT-TK1a: purified recombinant Arabidopsis thaliana thymidine kinase TK1a, SEQ ID NO: 9 (protein, listed as Arabidopsis thaliana)
chain: MATLKASFLIKTLDSDVTGDFLSDLERRGSGAVHVIMGPMFSGKSTSLLRRIKSEISDGRSVAMLKSSKDTRYAKDSVVTHDGIGFPCWALPDLMSFPEKFGLDAYNKLDVIGIDEAQFFGDLYEFCCKVADDDGKIVIVAGLDGDYLRRSFGAVLDIIPIADSVTKLTARCEVCGHKAFFTLRKNCDTRTELIGGADVYMPVCRKHYITNHIVIKASKKVLEDSDKARAESCVAATI
ratio [kcat/Km (Thd)]/[kcat/Km (AZT)] [15]: 0.08
